Experimental data: patent publication US20250163104A1, “MACROCYCLIC IMMUNOMODULATORS” (priority 2021, published 2025)
Where a SMILES comes first, the peptide text is derived from it. Bridges are numbered along the chain shown (N, C = ends). [ ]: non-standard residue; d: D form. The star is where a group is joined. Phe(4-COOH) = N[C@@H](Cc1ccc(C(=O)O)cc1)C(=O)O; Bip = N[C@@H](Cc1ccc(-c2ccccc2)cc1)C(=O)O; Phe(3-Me) = Cc1cccc(C[C@H](N)C(=O)O)c1; 4Pal = N[C@@H](Cc1ccncc1)C(=O)O; Cha = N[C@@H](CC1CCCCC1)C(=O)O; dCha = N[C@H](CC1CCCCC1)C(=O)O; Carboxymethyl = O=C(O)C*; Orn = NCCC[C@H](N)C(=O)O; Dab = NCC[C@H](N)C(=O)O; Dap = NC[C@H](N)C(=O)O

The molecules below were run against T1, human PD-1 / PD-L1-Ig binding on Jurkat cell line over-expressing human PD-1 (Jurkat-PD-1) (Homo sapiens, UniProt Q15116) (assay: Jurkat-PD-1 Cell Binding High-Content Screening Assay (CBA)). Conditions: Jurkat-PD-1 cells, PE-labeled PD-L1-Ig 20 nM final; read-out: Jurkat HPD1_PDL1 IC50.
T1 construct: expressed in transfected cells; host or cells: Jurkat
T1 sequence (Q15116 25-288): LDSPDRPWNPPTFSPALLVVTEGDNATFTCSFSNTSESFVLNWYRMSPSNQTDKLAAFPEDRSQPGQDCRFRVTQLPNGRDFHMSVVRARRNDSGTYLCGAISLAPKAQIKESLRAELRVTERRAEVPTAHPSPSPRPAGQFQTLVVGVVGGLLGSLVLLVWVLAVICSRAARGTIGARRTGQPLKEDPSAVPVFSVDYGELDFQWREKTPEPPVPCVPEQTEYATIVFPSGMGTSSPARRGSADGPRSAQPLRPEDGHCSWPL
Format: cell-based
Procedure, shortened: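 Jurkat cells over-expressing human PD-1, in DMEM/10% FCS, pre-incubated with compound 2 h at 37° C. PE-labeled human PD-L1-Ig (20 nM final) added for 1 h; cells fixed in paraformaldehyde with Hoechst 33342 nuclear stain, washed, and bound fluorescence quantified by high-content imaging.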

Point of comparison: CC(C)[C@@H]1NC(=O)[C@H](Cc2c[nH]c3ccccc23)NC(=O)[C@H](CC(=O)O)NC(=O)[C@H](Cc2ccc(OCC(=O)O)cc2)NC(=O)[C@H](CN)NC(=O)CSC[C@@H](C(=O)N[C@@H](C)C(N)=O)NC(=O)[C@H]([C@@H](C)O)NC(=O)[C@H](C(C)C)NC(=O)[C@H](CC2CCCCC2)NC(=O)[C@H](CCN)NC(=O)[C@@H](Cc2ccccc2)NC(=O)[C@H](CCCN)NC(=O)[C@H](CCC(=O)O)NC(=O)[C@H](Cc2ccc(-c3ccccc3)cc2)NC1=O [Compound 1436] ({CH2CO}-[Dap]Y(Carboxymethyl)DWV[Bip]E[Orn][dF][Dab][Cha]VTCA-NH2; thioether N-14), IC50 22.8 nM. Against it:
- Cc1cccc(C[C@@H]2NC(=O)[C@H](CC(=O)O)NC(=O)[C@H](Cc3ccncc3)NC(=O)[C@H](Cc3ccc(OCC(=O)O)cc3)NC(=O)CSC[C@@H](C(=O)N[C@@H](C)C(N)=O)NC(=O)[C@H]([C@@H](C)O)NC(=O)[C@H](C(C)C)NC(=O)[C@H](CC3CCCCC3)NC(=O)[C@H](CCN)NC(=O)[C@@H](Cc3ccccc3)NC(=O)[C@H](CCCN)NC(=O)[C@H](CCC(=O)O)NC(=O)[C@H](Cc3ccc(-c4ccccc4)cc3)NC(=O)[C@H](C(C)C)NC2=O)c1 [Compound 1430] ({CH2CO}-Y(Carboxymethyl)[4Pal]D[Phe(3-Me)]V[Bip]E[Orn][dF][Dab][Cha]VTCA-NH2; thioether N-14) — 2.1-fold lower, 10.8 nM
- Cc1cccc(C[C@@H]2NC(=O)[C@H](CC(=O)O)NC(=O)[C@H](Cc3ccc(O)cc3)NC(=O)[C@H](CC(N)=O)NC(=O)CSC[C@@H](C(=O)N[C@@H](C)C(N)=O)NC(=O)[C@H]([C@@H](C)O)NC(=O)[C@H](C(C)C)NC(=O)[C@H](CC3CCCCC3)NC(=O)[C@H](CCN)NC(=O)[C@@H](Cc3ccccc3)NC(=O)[C@H](CCCN)NC(=O)[C@H](CCC(=O)O)NC(=O)[C@H](Cc3ccc(-c4ccccc4)cc3)NC(=O)[C@H](C(C)C)NC2=O)c1 [Compound 1431] ({CH2CO}-NYD[Phe(3-Me)]V[Bip]E[Orn][dF][Dab][Cha]VTCA-NH2; thioether N-14) — 2-fold lower, 11.6 nM
- CC(C)[C@@H]1NC(=O)[C@H](Cc2c[nH]c3ccccc23)NC(=O)[C@H](CC(=O)O)NC(=O)[C@H](Cc2ccc(C(=O)O)cc2)NC(=O)[C@H](Cc2ccncc2)NC(=O)CSC[C@@H](C(=O)N[C@@H](C)C(N)=O)NC(=O)[C@H]([C@@H](C)O)NC(=O)[C@H](C(C)C)NC(=O)[C@H](CC2CCCCC2)NC(=O)[C@H](CCN)NC(=O)[C@@H](Cc2ccccc2)NC(=O)[C@H](CCCN)NC(=O)[C@H](CCC(=O)O)NC(=O)[C@H](Cc2ccc(-c3ccccc3)cc2)NC1=O [Compound 1432] ({CH2CO}-[4Pal][Phe(4-COOH)]DWV[Bip]E[Orn][dF][Dab][Cha]VTCA-NH2; thioether N-14) — within 1.5-fold, 17.4 nM
- CC(C)[C@@H]1NC(=O)[C@H](Cc2c[nH]c3ccccc23)NC(=O)[C@H](CC(=O)O)NC(=O)[C@H](Cc2ccncc2)NC(=O)[C@H](CN)NC(=O)CSC[C@@H](C(=O)N[C@@H](C)C(N)=O)NC(=O)[C@H]([C@@H](C)O)NC(=O)[C@H](C(C)C)NC(=O)[C@H](CC2CCCCC2)NC(=O)[C@H](CCN)NC(=O)[C@@H](Cc2ccccc2)NC(=O)[C@H](CCCN)NC(=O)[C@H](CCC(=O)O)NC(=O)[C@H](Cc2ccc(-c3ccccc3)cc2)NC1=O [Compound 1433] ({CH2CO}-[Dap][4Pal]DWV[Bip]E[Orn][dF][Dab][Cha]VTCA-NH2; thioether N-14) — 1.8-fold higher, 40.5 nM
- CC(C)[C@@H]1NC(=O)[C@H](Cc2c[nH]c3ccccc23)NC(=O)[C@H](CC(=O)O)NC(=O)[C@H](Cc2ccncc2)NC(=O)[C@H](Cc2ccc(OCC(=O)O)cc2)NC(=O)CSC[C@@H](C(=O)N[C@@H](C)C(N)=O)NC(=O)[C@H]([C@@H](C)O)NC(=O)[C@H](C(C)C)NC(=O)[C@H](CC2CCCCC2)NC(=O)[C@H](CCN)NC(=O)[C@@H](Cc2ccccc2)NC(=O)[C@H](CCCN)NC(=O)[C@H](CCC(=O)O)NC(=O)[C@H](Cc2ccc(-c3ccccc3)cc2)NC1=O [Compound 1434] ({CH2CO}-Y(Carboxymethyl)[4Pal]DWV[Bip]E[Orn][dF][Dab][Cha]VTCA-NH2; thioether N-14) — 1.6-fold higher, 35.9 nM
- CC(C)[C@@H]1NC(=O)[C@H](Cc2c[nH]c3ccccc23)NC(=O)[C@H](CC(=O)O)NC(=O)[C@H](Cc2ccc(O)cc2)NC(=O)[C@H](CC(N)=O)NC(=O)CSC[C@@H](C(=O)N[C@@H](C)C(N)=O)NC(=O)[C@H]([C@@H](C)O)NC(=O)[C@H](C(C)C)NC(=O)[C@H](CC2CCCCC2)NC(=O)[C@H](CCN)NC(=O)[C@@H](Cc2ccccc2)NC(=O)[C@H](CCCN)NC(=O)[C@H](CCC(=O)O)NC(=O)[C@H](Cc2ccc(-c3ccccc3)cc2)NC1=O [Compound 1435] ({CH2CO}-NYDWV[Bip]E[Orn][dF][Dab][Cha]VTCA-NH2; thioether N-14) — 2.3-fold higher, 53.1 nM
- Cc1cccc(C[C@@H]2NC(=O)[C@H](CC(=O)O)NC(=O)[C@H](Cc3ccc(C(=O)O)cc3)NC(=O)[C@H](Cc3ccc(OCC(=O)O)cc3)NC(=O)CSC[C@@H](C(=O)N[C@@H](C)C(N)=O)NC(=O)[C@H]([C@@H](C)O)NC(=O)[C@H](C(C)C)NC(=O)[C@H](CC3CCCCC3)NC(=O)[C@H](CCN)NC(=O)[C@@H](Cc3ccccc3)NC(=O)[C@H](CCCN)NC(=O)[C@H](CCC(=O)O)NC(=O)[C@H](Cc3ccc(-c4ccccc4)cc3)NC(=O)[C@H](C(C)C)NC2=O)c1 [Compound 1437] ({CH2CO}-Y(Carboxymethyl)[Phe(4-COOH)]D[Phe(3-Me)]V[Bip]E[Orn][dF][Dab][Cha]VTCA-NH2; thioether N-14) — within 1.5-fold, 16.6 nM
- CC(C)[C@@H]1NC(=O)[C@H](Cc2c[nH]c3ccccc23)NC(=O)[C@H](CC(=O)O)NC(=O)[C@H](Cc2ccc(C(=O)O)cc2)NC(=O)[C@H](Cc2ccc(OCC(=O)O)cc2)NC(=O)CSC[C@@H](C(=O)N[C@@H](C)C(N)=O)NC(=O)[C@H]([C@@H](C)O)NC(=O)[C@H](C(C)C)NC(=O)[C@H](CC2CCCCC2)NC(=O)[C@H](CCN)NC(=O)[C@@H](Cc2ccccc2)NC(=O)[C@H](CCCN)NC(=O)[C@H](CCC(=O)O)NC(=O)[C@H](Cc2ccc(-c3ccccc3)cc2)NC1=O [Compound 1438] ({CH2CO}-Y(Carboxymethyl)[Phe(4-COOH)]DWV[Bip]E[Orn][dF][Dab][Cha]VTCA-NH2; thioether N-14) — within 1.5-fold, 30.4 nM
- CC(C)[C@@H]1NC(=O)[C@H](Cc2c[nH]c3ccccc23)NC(=O)[C@H](CC(=O)O)NC(=O)[C@H](Cc2ccc(C(=O)O)cc2)NC(=O)[C@H](Cc2ccncc2)NC(=O)CSC[C@@H](C(=O)N[C@@H](C)C(N)=O)NC(=O)[C@H]([C@@H](C)O)NC(=O)[C@H](C(C)C)NC(=O)[C@H](CC2CCCCC2)NC(=O)[C@H](CCN)NC(=O)[C@@H](CC2CCCCC2)NC(=O)[C@H](CCCN)NC(=O)[C@H](CCC(=O)O)NC(=O)[C@H](Cc2ccc(-c3ccccc3)cc2)NC1=O [Compound 1439] ({CH2CO}-[4Pal][Phe(4-COOH)]DWV[Bip]E[Orn][dCha][Dab][Cha]VTCA-NH2; thioether N-14) — 4.1-fold lower, 5.5 nM
- CC(C)[C@@H]1NC(=O)[C@H](Cc2c[nH]c3ccccc23)NC(=O)[C@H](CC(=O)O)NC(=O)[C@H](Cc2ccncc2)NC(=O)[C@H](CN)NC(=O)CSC[C@@H](C(=O)N[C@@H](C)C(N)=O)NC(=O)[C@H]([C@@H](C)O)NC(=O)[C@H](C(C)C)NC(=O)[C@H](CC2CCCCC2)NC(=O)[C@H](CCN)NC(=O)[C@@H](CC2CCCCC2)NC(=O)[C@H](CCCN)NC(=O)[C@H](CCC(=O)O)NC(=O)[C@H](Cc2ccc(-c3ccccc3)cc2)NC1=O [Compound 1440] ({CH2CO}-[Dap][4Pal]DWV[Bip]E[Orn][dCha][Dab][Cha]VTCA-NH2; thioether N-14) — 3.8-fold higher, 86.8 nM
- CC(C)[C@@H]1NC(=O)[C@H](Cc2c[nH]c3ccccc23)NC(=O)[C@H](CC(=O)O)NC(=O)[C@H](Cc2ccncc2)NC(=O)[C@H](Cc2ccc(OCC(=O)O)cc2)NC(=O)CSC[C@@H](C(=O)N[C@@H](C)C(N)=O)NC(=O)[C@H]([C@@H](C)O)NC(=O)[C@H](C(C)C)NC(=O)[C@H](CC2CCCCC2)NC(=O)[C@H](CCN)NC(=O)[C@@H](CC2CCCCC2)NC(=O)[C@H](CCCN)NC(=O)[C@H](CCC(=O)O)NC(=O)[C@H](Cc2ccc(-c3ccccc3)cc2)NC1=O [Compound 1441] ({CH2CO}-Y(Carboxymethyl)[4Pal]DWV[Bip]E[Orn][dCha][Dab][Cha]VTCA-NH2; thioether N-14) — 1.7-fold lower, 13.4 nM
- CC(C)[C@@H]1NC(=O)[C@H](Cc2c[nH]c3ccccc23)NC(=O)[C@H](CC(=O)O)NC(=O)[C@H](Cc2ccc(O)cc2)NC(=O)[C@H](CC(N)=O)NC(=O)CSC[C@@H](C(=O)N[C@@H](C)C(N)=O)NC(=O)[C@H]([C@@H](C)O)NC(=O)[C@H](C(C)C)NC(=O)[C@H](CC2CCCCC2)NC(=O)[C@H](CCN)NC(=O)[C@@H](CC2CCCCC2)NC(=O)[C@H](CCCN)NC(=O)[C@H](CCC(=O)O)NC(=O)[C@H](Cc2ccc(-c3ccccc3)cc2)NC1=O [Compound 1442] ({CH2CO}-NYDWV[Bip]E[Orn][dCha][Dab][Cha]VTCA-NH2; thioether N-14) — within 1.5-fold, 15.9 nM
- CC(C)[C@@H]1NC(=O)[C@H](Cc2c[nH]c3ccccc23)NC(=O)[C@H](CC(=O)O)NC(=O)[C@H](Cc2ccc(OCC(=O)O)cc2)NC(=O)[C@H](CN)NC(=O)CSC[C@@H](C(=O)N[C@@H](C)C(N)=O)NC(=O)[C@H]([C@@H](C)O)NC(=O)[C@H](C(C)C)NC(=O)[C@H](CC2CCCCC2)NC(=O)[C@H](CCN)NC(=O)[C@@H](CC2CCCCC2)NC(=O)[C@H](CCCN)NC(=O)[C@H](CCC(=O)O)NC(=O)[C@H](Cc2ccc(-c3ccccc3)cc2)NC1=O [Compound 1443] ({CH2CO}-[Dap]Y(Carboxymethyl)DWV[Bip]E[Orn][dCha][Dab][Cha]VTCA-NH2; thioether N-14) — 1.9-fold lower, 11.8 nM
